Experimental data published in patent US20120191039A1, “CARRIER LINKED PRAMIPEXOLE PRODRUGS” (ASCENDIS PHARMA A/S, priority 2009, published 2012).
Where two headings read alike, the source gives them in different places. Blank lines part the entries; values can stand above or below the compound they belong to.

Experiments:
[1] = Release kinetics in vitro: hydrolysis in buffer at pH 7.4 and 37° C.; type: physicochemical; conditions: sodium phosphate buffer; half time of release, 60 mM sodium phosphate, 3 mM EDTA, 0.01% Tween20, pH 7.4, 37° C.; read-out: t1/2 buffer A (pH 7.4) (converted)
Protocol: In vitro release sample was vortexed and centrifuged. An aliquot was taken from the supernatant, diluted with eluent (20 mM phosphate buffer pH 7.4, 150 mM NaCl) and assayed for pramipexole content by SEC as described above.
Release of drug molecule was effected by hydrolysis in buffer at pH 7.4 and 37° C.
9a, 9b, 9c, 9d, 9e, 11b, 20, 21, 22b, 23, 24b, 33, and 35 respectively, were dissolved in buffer (60 mM sodium phosphate, 3 mM EDTA, 0.01% Tween20, pH 7.4), solution was filtered through a 0.2 μm filter and incubated at 37° C. Samples were taken at time intervals and analyzed by RP-HPLC at 263 nm and 280 nm and ESI-MS. UV-signals correlating to linker conjugate molecules were integrated and plotted against incubation time. Curve-fitting software was applied to estimate the corresponding half time of release
16a, 16b, 26, 30, and 31 respectively, were suspended in buffer (60 mM sodium phosphate, 3 mM EDTA, 0.01% Tween20, pH 7.4) and incubated at 37° C. At time intervals samples were vortexed and centrifuged. Aliquots (10-50 μL) were taken from the supernatant solution, and analyzed by measurement of the absorption of released drug at 263 nm. Calculated amounts of released drug were plotted against incubation time. Alternatively, amount of released pramipexole was determined by size exclusion chromatography as described in “Materials and Methods”.
Curve-fitting software was applied to estimate the corresponding half time of release.

[2] = cited from earlier work

SMILES: CCCN[C@H]1CCc2nc(N)sc2C1 [Pramipexole]
elimination half life ([2]; healthy subjects): 8 h
excretion ([2]; in vivo): mainly renal
metabolism ([2]; in vivo): negligible metabolism
protein bound ([2]; in vivo): Fifteen
volume of distribution ([2]; in vivo): 7 L/kg
absorption ([2]; oral administration): rapidly and completely absorbed
time to maximum plasma concentration ([2]; oral, empty stomach): 1 to 2 h
time to maximum plasma concentration ([2]; oral, with food): 3 to 4 h
Oral bioavailability ([2]; oral): over 90%

SMILES: CCCN[C@H]1CCc2nc(NC(=O)CNC(=O)NCCCCCCSC3CC(=O)N(CCC(=O)NCCOCCOCCOCCOCCOCCOCCC(=O)NCC(N)=O)C3=O)sc2C1 (some centres unmarked) [Compound 9e]
half-life [1]: 103 h

SMILES: CCCN[C@H]1CCc2nc(NC(=O)CNCC(=O)NCCCCCCSC3CC(=O)N(CCC(=O)NCCOCCOCCOCCOCCOCCOCCC(=O)NCC(N)=O)C3=O)sc2C1 (some centres unmarked) [Compound 9d]
half-life [1]: 26.4 h

Other lines, results leading:

half-life [1]: 88.8 h
SMILES: CCCN[C@H]1CCc2nc(NC(=O)CCC(=O)NCCCCCCSC3CC(=O)N(CCC(=O)NCCOCCOCCOCCOCCOCCOCCC(=O)NCC(N)=O)C3=O)sc2C1 (some centres unmarked) [Compound 9b]

half-life [1]: 31.2 h
SMILES: CCCN[C@H]1CCc2nc(NC(=O)COCC(=O)NCCCCCCSC3CC(=O)N(CCC(=O)NCCOCCOCCOCCOCCOCCOCCC(=O)NCC(N)=O)C3=O)sc2C1 (some centres unmarked) [Compound 9c]

half-life [1]: 28.8 h
SMILES: CCCN[C@H]1CCc2nc(NC(=O)CCC(=O)NCCSC3CC(=O)N(CCC(=O)NCCOCCOCCOCCOCCOCCOCCC(=O)NCC(N)=O)C3=O)sc2C1 (some centres unmarked) [Compound 9a]
